Read-outs that look alike come from different tables or passages of the source. Numbered stars: 1 amine (or outer) side, 2 acyl side, 3 side chain; on linkers, the order of the positions; unused ones are H or OH. Bridge positions count the residues as written; N and C are the ends. Square brackets hold non-standard residues; d marks the D form. Peptide text beside a SMILES is read from it. * marks the point of attachment. TtdsdLys(DOTA)NH2 = NC(=O)[C@@H](CCCCNC(=O)CN1CCN(CC(=O)O)CCN(CC(=O)O)CCN(CC(=O)O)CC1)NC(=O)CCC(=O)NCCCOCCOCCOCCCN*; DOTA = O=C(O)CN1CCN(CC(=O)O)CCN(CC(=O)*)CCN(CC(=O)O)CC1; Ala(quinolin-3-yl) = N[C@@H](Cc1cnc2ccccc2c1)C(=O)O; Phe(4-SO3H) = N[C@@H](Cc1ccc(S(=O)(=O)O)cc1)C(=O)O; Trp(6-Cl) = N[C@@H](Cc1c[nH]c2cc(Cl)ccc12)C(=O)O; Phe(3-Cl) = N[C@@H](Cc1cccc(Cl)c1)C(=O)O; Phe(4-Cl) = N[C@@H](Cc1ccc(Cl)cc1)C(=O)O; d(αMeD) = C[C@@](N)(CC(=O)O)C(=O)O; X1 = O=C(CC1CCN([*:1])CC1)[*:2]; Cit = NC(=O)NCCC[C@H](N)C(=O)O; Tle = CC(C)(C)[C@H](N)C(=O)O; Isovaleryl = CC(C)CC(=O)*; Nle = CCCC[C@H](N)C(=O)O; Api = NC1(C(=O)O)CCNCC1; Hexanoyl = CCCCCC(=O)*; Aib = CC(C)(N)C(=O)O
Columns and labels:
[1] = target: T1, PSMA-expressing C4-2 cells (Homo sapiens, UniProt Q04609); test: FACS binding assay (competition with 50 nM PSM-0183); settings: read-out: pIC50 [C4-2] CAT (converted)
T1 construct: PSMA-expressing C4-2 cells (ATCC, Cat. No. CRL-3314) were cultured in RPMI-1640; host or cells: C4-2 cells
T1 sequence (Q04609 whole entry): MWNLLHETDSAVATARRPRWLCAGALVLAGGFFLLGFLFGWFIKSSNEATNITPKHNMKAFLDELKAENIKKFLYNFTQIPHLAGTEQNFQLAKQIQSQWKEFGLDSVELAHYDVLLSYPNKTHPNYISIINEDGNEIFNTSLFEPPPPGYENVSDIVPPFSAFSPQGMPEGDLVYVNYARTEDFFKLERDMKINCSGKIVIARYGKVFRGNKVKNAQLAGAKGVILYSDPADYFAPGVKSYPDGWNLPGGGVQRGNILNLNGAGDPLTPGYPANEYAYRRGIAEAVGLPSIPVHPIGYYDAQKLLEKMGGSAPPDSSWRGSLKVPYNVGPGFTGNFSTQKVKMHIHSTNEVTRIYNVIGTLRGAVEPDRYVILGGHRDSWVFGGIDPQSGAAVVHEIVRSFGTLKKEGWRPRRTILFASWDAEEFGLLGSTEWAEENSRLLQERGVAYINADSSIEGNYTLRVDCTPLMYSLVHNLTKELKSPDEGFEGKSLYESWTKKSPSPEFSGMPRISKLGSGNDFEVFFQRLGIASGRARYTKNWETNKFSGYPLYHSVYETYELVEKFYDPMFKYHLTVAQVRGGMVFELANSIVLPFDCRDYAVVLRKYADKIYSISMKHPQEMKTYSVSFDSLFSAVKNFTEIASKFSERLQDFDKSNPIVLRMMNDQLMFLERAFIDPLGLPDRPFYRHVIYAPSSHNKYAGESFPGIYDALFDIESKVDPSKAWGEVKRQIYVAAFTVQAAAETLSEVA
Method in brief: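 C4-2 cells were incubated 1 h at 4 °C with 50 nM AF488-labelled peptide PSM-0183 plus increasing test compound concentrations, then washed twice in ice-cold buffer. Median fluorescence in the AF488 channel was read by flow cytometry. IC50/pIC50 was derived by 4PL fitting of MFI versus concentration.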

[2] = target: T2, Fc-fusion protein of human PSMA (hPSMA-Fc) (Homo sapiens, UniProt Q04609); test: Surface plasmon resonance assay (Biacore T200, single cycle kinetic); type: binding; settings: read-out: pKD CAT (converted)
T2 construct: purchased Acro Biosystems PSA-H5264
T2 sequence (Q04609 44-750 limits assumed): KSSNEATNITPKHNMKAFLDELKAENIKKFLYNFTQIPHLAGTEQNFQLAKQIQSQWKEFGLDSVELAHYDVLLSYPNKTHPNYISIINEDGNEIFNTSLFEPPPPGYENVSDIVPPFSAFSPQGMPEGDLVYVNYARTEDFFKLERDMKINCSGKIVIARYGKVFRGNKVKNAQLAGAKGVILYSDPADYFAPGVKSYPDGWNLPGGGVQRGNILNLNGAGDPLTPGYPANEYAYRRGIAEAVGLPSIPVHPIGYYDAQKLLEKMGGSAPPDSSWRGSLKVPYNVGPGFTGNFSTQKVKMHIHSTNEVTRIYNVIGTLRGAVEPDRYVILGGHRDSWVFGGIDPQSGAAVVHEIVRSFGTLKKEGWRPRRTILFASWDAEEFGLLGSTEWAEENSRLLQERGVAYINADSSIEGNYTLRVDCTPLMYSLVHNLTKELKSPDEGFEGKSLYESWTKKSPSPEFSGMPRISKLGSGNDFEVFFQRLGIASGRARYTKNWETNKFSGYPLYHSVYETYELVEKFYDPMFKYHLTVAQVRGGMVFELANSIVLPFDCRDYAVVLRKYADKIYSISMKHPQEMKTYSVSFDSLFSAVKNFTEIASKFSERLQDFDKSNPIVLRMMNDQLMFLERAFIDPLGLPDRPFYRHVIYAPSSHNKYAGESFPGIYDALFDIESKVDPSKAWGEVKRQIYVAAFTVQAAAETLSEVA
Method in brief: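 hPSMA-Fc was captured (~1000 RU) on an Fc-binding-peptide CM5 chip, and compounds were run in single cycle kinetic mode at 25° C in HBST with 0.1% DMSO. Double-blank-corrected sensorgrams were fitted to a 1:1 Langmuir model to give KD, reported as pKD.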

[3] = pIC50 category of FACS binding, C4-2 cells
[4] = pKD category for PSMA SPR activity assay, hPSMA-Fc, 25° C.
[5] = FACS binding, PSMA-expressing C4-2 cells, pIC50 category
[6] = PSMA SPR assay, hPSMA-Fc, 25° C., pKD category

Row | Compound | IC50 [1, 3] | Kd [2, 4] | IC50 [1, 5] | Kd [2, 6] | other results
1 | CC(=O)N[C@H](C(=O)NC(C)(C)C(=O)N[C@@H](Cc1ccccc1)C(=O)N[C@H]1CSSC[C@@H](C(=O)N[C@H](C(=O)N[C@H](C(=O)N[C@@H](CC(=O)O)C(N)=O)[C@@H](C)O)C(C)(C)C)NC(=O)[C@H](CC(N)=O)NC(=O)[C@H](CCCCNC(=O)CN2CCN(CC(=O)O)CCN(CC(=O)O)CCN(CC(=O)O)CC2)NC(=O)[C@H](CCCNC(=N)N)NC(=O)[C@H](CCCCN)NC1=O)[C@@H](C)O [PSM-0397, Ac-Thr-Aib-Phe-[Cys-Lys-Arg-Lys(DOTA)-Asn-Cys]-Tle-Thr-Asp-NH2] (Ac-T[Aib]FCKRK(DOTA)NC[Tle]TD-NH2; disulfide 4-9) | < 0.2 µM | 0.0126 to 0.126 µM | – | – | –
2 | CCCC[C@H](NC(=O)[C@@H]1CSSC[C@H](NC(=O)[C@H](Cc2ccccc2)NC(=O)[C@H](C)NC(=O)[C@@H](NC(C)=O)[C@@H](C)O)C(=O)N[C@@H](CCCCN)C(=O)N[C@@H](CCCNC(=N)N)C(=O)N[C@@H](C)C(=O)N2CCC[C@H]2C(=O)N1)C(=O)N[C@H](C(=O)N[C@@H](CC(=O)O)C(N)=O)[C@@H](C)O [PSM-0286, Ac-Thr-Ala-Phe-[Cys-Lys-Arg-Ala-Pro-Cys]-Nle-Thr-Asp-NH2] (Ac-TAFCKRAPC[Nle]TD-NH2; disulfide 4-9) | – | – | > 3.16 µM | > 0.501 µM | –
3 | C[C@@H](O)[C@H](NC(=O)[C@@H](NC(=O)[C@@H]1CSSC[C@H](NC(=O)[C@H](Cc2ccc(Cl)cc2)NC(=O)C(C)(C)NC(=O)[C@@H](NC(=O)CC2CCN(C(=O)CN3CCN(CC(=O)O)CCN(CC(=O)O)CCN(CC(=O)O)CC3)CC2)[C@@H](C)O)C(=O)N[C@@H](CCCCN)C(=O)N[C@@H](CCCNC(=N)N)C(=O)N[C@](C)(CC(=O)O)C(=O)N[C@@H](CC(N)=O)C(=O)N1)C(C)(C)C)C(N)=O [PSM-0227, DOTA-Cmp-Thr-Aib-Pcf-[Cys-Lys-Arg-amd-Asn-Cys]-Tle-Thr-NH2] ({DOTA}-[X1]T[Aib][Phe(4-Cl)]CKR[d(αMeD)]NC[Tle]T-NH2; disulfide 5-10) | – | – | – | – | IC50 ([1]; FACS binding, C4-2 cells, competition with 50 nM PSM-0183, category): < 0.2 µM; Kd ([2]; SPR, hPSMA-Fc, single cycle kinetic, 25° C., category): < 0.0126 µM
4 | CC(=O)NC(=N)NCCC[C@@H]1NC(=O)[C@H](CCCCN)NC(=O)[C@@H](NC(=O)[C@H](Cc2ccc(Cl)cc2)NC(=O)C(C)(C)NC(C)=O)CSSC[C@@H](C(=O)N[C@H](C(=O)N[C@H](C(=O)N2CCC(CC(=O)N[C@H](CCCCNC(=O)CN3CCN(CC(=O)O)CCN(CC(=O)O)CCN(CC(=O)O)CC3)C(N)=O)CC2)[C@@H](C)O)C(C)(C)C)NC(=O)[C@H](CC(N)=O)NC(=O)C(C)(C)NC1=O [PSM-0298, Ac-Aib-Pcf-[Cys-Lys-Arg(Ac)-Aib-Asn-Cys]-Tle-Thr-Cmp-lys(DOTA)-NH2] (Ac-[Aib][Phe(4-Cl)]CKR(Ac)[Aib]NC[Tle]T[X1][dK](DOTA)-NH2; disulfide 3-8) | – | – | 0.2 to 1.26 µM | 0.0126 to 0.126 µM | –
5 | CC(C)CC(=O)NC(C)(C)C(=O)N[C@@H](Cc1ccccc1)C(=O)N[C@H]1CSSC[C@@H](C(=O)N[C@H](C(=O)N[C@H](C(N)=O)[C@@H](C)O)C(C)(C)C)NC(=O)[C@H](CC(N)=O)NC(=O)C(C)(C)NC(=O)[C@H](CCCNC(=N)N)NC(=O)[C@H](CCCCN)NC1=O [PSM-0450, Iva-Aib-Phe-[Cys-Lys-Arg-Aib-Asn-Cys]-Tle-Thr-NH2] (Isovaleryl-[Aib]FCKR[Aib]NC[Tle]T-NH2; disulfide 3-8) | < 0.2 µM | < 0.0126 µM | – | – | –
6 | C[C@@H](O)[C@H](NC(=O)[C@@H](NC(=O)[C@@H]1CSSC[C@H](NC(=O)[C@H](Cc2c[nH]c3cc(Cl)ccc23)NC(=O)C(C)(C)NC(=O)[C@@H](NC(=O)CC2CCN(C(=O)CN3CCN(CC(=O)O)CCN(CC(=O)O)CCN(CC(=O)O)CC3)CC2)[C@@H](C)O)C(=O)N[C@@H](CCCCN)C(=O)N[C@@H](CCCNC(N)=O)C(=O)NC(C)(C)C(=O)N[C@@H](CC(N)=O)C(=O)N1)C(C)(C)C)C(N)=O [PSM-0304, DOTA-Cmp-Thr-Aib-6Clw-[Cys-Lys-Cit-Aib-Asn-Cys]-Tle-Thr-NH2] ({DOTA}-[X1]T[Aib][Trp(6-Cl)]CK[Cit][Aib]NC[Tle]T-NH2; disulfide 5-10) | – | – | 0.2 to 1.26 µM | < 0.0126 µM | –
7 | C[C@@H](O)[C@H](NC(=O)[C@@H](NC(=O)[C@@H]1CSSC[C@H](NC(=O)[C@H](Cc2ccc(S(=O)(=O)O)cc2)NC(=O)C(C)(C)NC(=O)[C@@H](NC(=O)CC2CCN(C(=O)CN3CCN(CC(=O)O)CCN(CC(=O)O)CCN(CC(=O)O)CC3)CC2)[C@@H](C)O)C(=O)N[C@@H](CCCCN)C(=O)N[C@@H](CCCNC(=N)N)C(=O)NC(C)(C)C(=O)N[C@@H](CC(N)=O)C(=O)N1)C(C)(C)C)C(N)=O [PSM-0386, DOTA-Cmp-Thr-Aib-Fso-[Cys-Lys-Arg-Aib-Asn-Cys]-Tle-Thr-NH2] ({DOTA}-[X1]T[Aib][Phe(4-SO3H)]CKR[Aib]NC[Tle]T-NH2; disulfide 5-10) | > 3.16 µM | > 0.501 µM | – | – | –
8 | CCCCCC(=O)N[C@H](C(=O)N[C@@H](C)C(=O)N[C@@H](Cc1ccccc1)C(=O)N[C@H]1CSSC[C@@H](C(=O)N[C@@H](CC(C)C)C(=O)N[C@H](C(=O)N[C@@H](CC(=O)O)C(=O)NCCCOCCOCCOCCCNC(=O)CCC(=O)N[C@H](CCCCNC(=O)CN2CCN(CC(=O)O)CCN(CC(=O)O)CCN(CC(=O)O)CC2)C(N)=O)[C@@H](C)O)NC(=O)[C@H](CC(N)=O)NC(=O)[C@H](C)NC(=O)[C@H](CCCNC(=N)N)NC(=O)[C@H](CCCCN)NC1=O)[C@@H](C)O [PSM-0405, Hex-Thr-Ala-Phe-[Cys-Lys-Arg-Ala-Asn-Cys]-Leu-Thr-Asp-Ttds-lys(DOTA)-NH2] (Hexanoyl-TAFCKRANCLTD-{TtdsdLys(DOTA)NH2}; disulfide 4-9) | < 0.2 µM | 0.0126 to 0.126 µM | – | – | –
9 | C[C@@H](O)[C@H](NC(=O)[C@@H](NC(=O)[C@@H]1CSSC[C@H](NC(=O)[C@H](Cc2cccc(Cl)c2)NC(=O)C(C)(C)NC(=O)[C@@H](NC(=O)CC2CCN(C(=O)CN3CCN(CC(=O)O)CCN(CC(=O)O)CCN(CC(=O)O)CC3)CC2)[C@@H](C)O)C(=O)N[C@@H](CCCCN)C(=O)N[C@@H](CCCNC(=N)N)C(=O)NC(C)(C)C(=O)N[C@@H](CC(N)=O)C(=O)N1)C(C)(C)C)C(N)=O [PSM-0583, DOTA-Cmp-Thr-Aib-Mcf-[Cys-Lys-Arg-Aib-Asn-Cys]-Tle-Thr-NH2] ({DOTA}-[X1]T[Aib][Phe(3-Cl)]CKR[Aib]NC[Tle]T-NH2; disulfide 5-10) | – | – | – | – | IC50 ([1]; FACS binding, C4-2 cells, category): < 0.2 µM; Kd ([2]; PSMA SPR assay, category): < 0.0126 µM
10 | CC(=O)N[C@H](C(=O)NC(C)(C)C(=O)N[C@@H](Cc1ccccc1)C(=O)N[C@H]1CSSC[C@@H](C(=O)N[C@H](C(=O)N[C@H](C(N)=O)[C@@H](C)O)C(C)(C)C)NC(=O)[C@H](CC(N)=O)NC(=O)C2(CCN(C(=O)CN3CCN(CC(=O)O)CCN(CC(=O)O)CCN(CC(=O)O)CC3)CC2)NC(=O)[C@H](CCCNC(=N)N)NC(=O)[C@H](CCCCN)NC1=O)[C@@H](C)O [PSM-0321, Ac-Thr-Aib-Phe-[Cys-Lys-Arg-Apc (DOTA)-Asn-Cys]-Tle-Thr-NH2] (Ac-T[Aib]FCKR[Api](DOTA)NC[Tle]T-NH2; disulfide 4-9) | – | – | < 0.2 µM | < 0.0126 µM | –
11 | C[C@@H](O)[C@H](NC(=O)[C@@H](NC(=O)[C@@H]1CSSC[C@H](NC(=O)[C@H](Cc2cnc3ccccc3c2)NC(=O)C(C)(C)NC(=O)[C@@H](NC(=O)CC2CCN(C(=O)CN3CCN(CC(=O)O)CCN(CC(=O)O)CCN(CC(=O)O)CC3)CC2)[C@@H](C)O)C(=O)N[C@@H](CCCCN)C(=O)N[C@@H](CCCNC(N)=O)C(=O)NC(C)(C)C(=O)N[C@@H](CC(N)=O)C(=O)N1)C(C)(C)C)C(N)=O [PSM-0333, DOTA-Cmp-Thr-Aib-2Qi-[Cys-Lys-Cit-Aib-Asn-Cys]-Tle-Thr-NH2] ({DOTA}-[X1]T[Aib][Ala(quinolin-3-yl)]CK[Cit][Aib]NC[Tle]T-NH2; disulfide 5-10) | – | – | > 3.16 µM | > 0.501 µM | –
12 | C[C@@H](O)[C@H](NC(=O)[C@@H](NC(=O)[C@@H]1CSSC[C@H](NC(=O)[C@H](Cc2cccc(Cl)c2)NC(=O)C(C)(C)NC(=O)[C@@H](NC(=O)CC2CCN(C(=O)CN3CCN(CC(=O)O)CCN(CC(=O)O)CCN(CC(=O)O)CC3)CC2)[C@@H](C)O)C(=O)N[C@@H](CCCCN)C(=O)N[C@@H](CCCNC(N)=O)C(=O)NC(C)(C)C(=O)N[C@@H](CC(N)=O)C(=O)N1)C(C)(C)C)C(N)=O [PSM-0431, DOTA-Cmp-Thr-Aib-Mcf-[Cys-Lys-Cit-Aib-Asn-Cys]-Tle-Thr-NH2] ({DOTA}-[X1]T[Aib][Phe(3-Cl)]CK[Cit][Aib]NC[Tle]T-NH2; disulfide 5-10) | 0.2 to 1.26 µM | < 0.0126 µM | – | – | –
13 | CC(=O)N[C@H](C(=O)NC(C)(C)C(=O)N[C@@H](Cc1ccccc1)C(=O)N[C@H]1CSSC[C@@H](C(=O)N[C@H](C(=O)N[C@H](C(=O)N[C@@H](CC(=O)O)C(N)=O)[C@@H](C)O)C(C)(C)C)NC(=O)[C@H](CC(N)=O)NC(=O)[C@H](C)NC(=O)[C@H](CCCNC(=N)N)NC(=O)[C@H](CCC(N)=O)NC1=O)[C@@H](C)O [PSM-0435, Ac-Thr-Aib-Phe-[Cys-Gln-Arg-Ala-Asn-Cys]-Tle-Thr-Asp-NH2] (Ac-T[Aib]FCQRANC[Tle]TD-NH2; disulfide 4-9) | < 0.2 µM | 0.0126 to 0.126 µM | – | – | –
